Reference: patent US6399542B1, “Alkoxyimino-substituted bicyclic compounds compositions containing the same and method of making such compounds” (Agro-Kanesho Co., Ltd., priority 1997, dated 2002)
Where “and” joins values, the source holds several entries; their conditions need not be identical. Equal values may be shown once. Read-outs that look alike come from different tables or passages of the source.

Columns and labels:
Assay type in all cases: in vivo
[1] = test system: Puccinia recondita; test: Effect on Wheat brown rust (preventive spray test); conditions: 7 days after inoculation
[2] = test system: Psecidoperonospora cubensis; test: Effect on Cucumber downy mildew (preventive spray test); conditions: 7 days after inoculation
[3] = test system: Erysiphe graminis; test: Effects on Barley powdery mildew (preventive spray test); conditions: lesions counted seven days after inoculation
[4] = test system: Phytophthora infestans; conditions: Tomato late blight, 5 days after inoculation
[5] = conc. of active ingredient 20 ppm
[6] = conc. of active ingredient 100 ppm
[7] = conc. of active ingredient 4 ppm

| SMILES | Preventive rate (%) [1, 5] [%] | Preventive rate (%) [1, 6] [%] | Preventive rate (%) [2, 5] [%] | Preventive rate (%) [2, 6] [%] | Preventive rate (%) [3, 5] [%] | Preventive rate (%) [3, 6] [%] | Preventive rate (%) [4, 5] | Preventive rate (%) [4, 6] [%] | Preventive rate (%) [2, 7] [%] | Preventive rate (%) [1, 7] [%] | Preventive rate (%) [3, 7] [%] | Preventive rate (%) [4, 7] [%] |
| --- | --- | --- | --- | --- | --- | --- | --- | --- | --- | --- | --- | --- |
| CNC(=O)C(OC)c1ccccc1COc1ccc2c(c1)OCCC2=NOC (racemic) [c-11] | 93 | 99 |  |  |  |  |  |  |  |  |  |  |
| CCc1cc2c(cc1OCc1ccccc1/C(=N\OC)C(=O)OC)OCC2=NOC (single isomer, unassigned) [a-29] |  |  | 97 | 97 |  |  |  |  |  |  |  |  |
| CCc1cc2c(cc1OCc1ccccc1/C(=N\OC)C(=O)NC)OCC2=NOC (single isomer, unassigned) [a-31] |  |  |  |  | 99 | 100 |  |  |  |  |  |  |
| CON=C(C(=O)OC)c1ccccc1COc1cc2c(cc1C)C(=NOC)C(C)C2 (single isomer, unassigned) [f-9] |  |  | 100 | 100 |  |  | 93% | 98 | 100 |  |  |  |
| CCc1cc2c(cc1OCc1ccccc1/C(=N\OC)C(=O)NC)OCC2=NOC [a-32] |  |  | 81 | 97 |  |  | 98% | 91 |  |  |  |  |
| CO/N=C(/C(=O)OC)c1ccccc1COc1ccc2c(c1C)OCC2=NOCC#N [a-48] | 100 | 100 | 100 | 100 |  |  | 81% | 94 |  | 100 |  |  |
| CNC(=O)/C(=N/OC)c1ccccc1COc1ccc2c(c1C)OCC2=NOCC#N [a-49] | 100 | 100 | 100 | 100 |  |  | 97% | 97 | 88 | 100 |  |  |
| CNC(=O)/C(=N/OC)c1ccccc1COc1ccc2c(c1C)OCC2=NOCC(=O)OC [a-54] | 100 | 100 |  |  |  |  |  |  |  | 100 |  |  |
| C=C(Cl)CON=C1COc2c1ccc(OCc1ccccc1/C(=N\OC)C(=O)NC)c2C [a-64] | 100 | 100 | 100 | 100 | 98 | 100 | 84% | 100 | 100 | 100 | 94 |  |
| C/C=C/CON=C1COc2c1ccc(OCc1ccccc1/C(=N\OC)C(=O)NC)c2C [a-65] | 100 | 100 | 94 | 100 |  |  | 97% | 100 |  |  |  |  |
| CO/N=C(/C(=O)OC)c1ccccc1COc1ccc2c(c1C)OCC2=NOCC=C(C)C [a-66] | 100 | 100 |  |  |  |  |  |  |  | 100 |  |  |
| CNC(=O)/C(=N/OC)c1ccccc1COc1ccc2c(c1C)OCC2=NOCC=C(C)C [a-67] | 100 | 100 | 100 | 100 |  |  | 88% | 100 |  | 100 |  |  |
| CO/N=C(/C(=O)OC)c1ccccc1COc1ccc2c(c1C)OCC2=NOCc1ccccc1 [a-72] | 100 | 100 |  |  |  |  |  |  |  |  |  |  |
| CNC(=O)/C(=N/OC)c1ccccc1COc1ccc2c(c1C)OCC2=NOCc1ccccc1 [a-73] | 100 | 100 | 88 | 88 | 100 | 100 |  |  |  | 100 | 98 |  |
| CO/N=C(/C(=O)OC)c1ccccc1COc1ccc2c(c1C)OCC2=NOCc1ccc(Cl)c(Cl)c1 [a-78] | 100 | 100 |  |  |  |  |  |  |  | 95 |  |  |
| CNC(=O)/C(=N/OC)c1ccccc1COc1ccc2c(c1C)OCC2=NOCc1ccc(Cl)c(Cl)c1 [a-79] | 98 | 100 |  |  |  |  |  |  |  | 98 |  |  |
| CO/C=C(/C(=O)OC)c1ccccc1COc1ccc2c(c1)OCCC2=NOC [c-2] | 100 | 100 | 97 | 100 | 100 | 100 | 98% | 98 |  | 93 |  | 84 |
| CON=C1CCOc2cc(OCc3ccccc3N(OC)C(=O)OC)ccc21 [c-7] | 99 | 100 | 94 | 100 |  |  |  |  |  |  |  |  |
| CON=C(C(=O)OC)c1ccccc1COc1cc2c(cc1C)C(=NOC)CCO2 [c-26] | 98 | 99 | 100 | 100 |  |  |  |  |  |  |  |  |
| CCc1c(OCc2ccccc2C(=NOC)C(=O)OC)ccc2c1OCCC2=NOC [c-29] | 100 | 100 |  |  | 95 | 99 |  |  |  | 96 |  |  |

| SMILES | Preventive rate (%) [1, 5] [%] | Preventive rate (%) [1, 6] [%] | Preventive rate (%) [2, 5] [%] | Preventive rate (%) [2, 6] [%] | Preventive rate (%) [3, 5] [%] | Preventive rate (%) [3, 6] [%] | Preventive rate (%) [4, 5] | Preventive rate (%) [4, 6] [%] | Preventive rate (%) [2, 7] [%] | Preventive rate (%) [1, 7] [%] | Preventive rate (%) [3, 7] [%] | Preventive rate (%) [4, 7] [%] |
| --- | --- | --- | --- | --- | --- | --- | --- | --- | --- | --- | --- | --- |
| CCCCON=C1CCOc2c1ccc(OCc1ccccc1C(=NOC)C(=O)NC)c2C [c-43] | 93 |  |  |  |  |  |  |  |  |  |  |  |
| CON=C(C(=O)OC)c1ccccc1COc1ccc2c(c1C)OCCC2=NOCC#N [c-48] | 100 | 100 |  |  |  |  |  |  |  | 100 |  |  |
| CNC(=O)C(=NOC)c1ccccc1COc1ccc2c(c1C)OCCC2=NOCC#N [c-49] | 93 | 94 |  |  |  |  |  |  |  | 91 |  |  |
| CON=C(C(=O)OC)c1ccccc1COc1ccc2c(c1C)OCCC2=NOC(C)(C)C [c-52] | 93 | 100 |  |  |  |  |  |  |  |  |  |  |
| CCCCON=C1CCOc2c1ccc(OCc1ccccc1C(=NOC)C(=O)NC)c2C [c-58] | 100 | 100 |  |  | 98 | 100 |  | 100 |  | 98 |  |  |
| CON=C(C(=O)OC)c1ccccc1COc1ccc2c(c1C)OCCC2=NOCC=CCl [c-61] | 100 | 100 |  |  |  |  |  |  |  | 99 |  |  |
| CNC(=O)C(=NOC)c1ccccc1COc1ccc2c(c1C)OCCC2=NOCC=CCl [c-62] | 100 | 100 |  |  | 100 | 100 | 100% | 100 |  | 100 | 96 |  |
| CON=C(C(=O)OC)c1ccccc1COc1ccc2c(c1)OCCC2=NOCC=CCl [c-63] | 99 | 100 |  |  |  |  |  |  |  |  |  |  |
| CNC(=O)C(=NOC)c1ccccc1COc1ccc2c(c1C)OCCC2=NOCC=C(C)C [c-67] | 100 | 100 |  |  | 100 | 100 |  |  |  | 100 |  |  |
| CON=C(C(=O)OC)c1ccccc1COc1ccc2c(c1C)OCCC2=NOCc1ccc(Cl)c(Cl)c1 [c-78] | 96 | 100 |  |  |  |  |  |  |  |  |  |  |
| CNC(=O)C(=NOC)c1ccccc1COc1ccc2c(c1C)OCCC2=NOCc1ccc(Cl)c(Cl)c1 [c-79] | 100 | 100 |  |  | 100 | 100 |  |  |  | 97 |  |  |
| CON=C(C(=O)OC)c1ccccc1COc1ccc2c(c1C)OCCC2=NOCc1cccc(F)c1 [c-80] | 98 | 100 |  |  |  |  |  |  |  |  |  |  |
| CNC(=O)C(=NOC)c1ccccc1COc1ccc2c(c1C)OCCC2=NOCc1cccc(F)c1 [c-81] | 99 | 100 |  |  | 98 | 98 |  |  |  | 98 |  |  |
| CON=C(C(=O)OC)c1ccccc1COc1ccc2c(c1C)OCCC2=NOCc1c(F)c(F)c(F)c(F)c1F [c-82] | 96 | 100 |  |  | 86 | 100 |  |  |  |  |  |  |
| CNC(=O)C(=NOC)c1ccccc1COc1ccc2c(c1C)OCCC2=NOCc1cccc2ccccc12 [c-89] | 100 | 100 |  |  | 92 | 98 |  |  |  | 96 |  |  |
| CON=C1CCc2cc(OCc3ccccc3C(=NOC)C(=O)OC)ccc21 [e-4] | 98 |  |  |  |  |  |  |  |  |  |  |  |
| CON=C(C(=O)OC)c1ccccc1COc1ccc2c(c1C)CCC2=NOC [e-15] | 98 | 99 | 95 | 100 |  |  |  |  |  |  |  |  |
| CON=C(C(=O)OC)c1ccccc1COc1ccc2c(c1C)CCC2=NOCC=CCl [e-57] |  |  | 94 | 100 |  |  |  |  |  |  |  |  |
| CNC(=O)C(=NOC)c1ccccc1COc1ccc2c(c1)CCC2=NOCC=CCl [e-58] | 100 | 100 | 100 | 100 | 100 | 100 | 92% and 98% | 100 | 100 |  |  |  |
| C#CCON=C1CCc2c1ccc(OCc1ccccc1C(=NOC)C(=O)OC)c2C [e-60] |  |  | 88 | 100 |  |  |  |  |  |  |  |  |
